Laboratory results from PMC11992225, “Antibacterial compounds against non-growing and intracellular bacteria” (npj Antimicrobials and Resistance, 2025).
Where “and” joins values, the source holds several entries; their conditions need not be identical. Identical values can stand only once.

Assays:
[1] = tested on: non-growing UPEC CFT073; assay: Dose-dependent killing analysis (CFU spot-plating) of stationary-phase UPEC; type: cell-based, Escherichia coli; details: for log10(CFU/ml) after treatment: individual replicates
Procedure, shortened: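 Killing assessed by CFU counts: overnight 37 °C LB agar spot plates (10 μl drops of 10-fold PBS dilutions) scored at the lowest dilution with distinct colonies. Samples were compound-treated non-growing UPEC CFT073, 200 μl per well. Performed as three biological replicates.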

[2] = tested on: non-growing S. aureus DSM2569; assay: Dose-dependent killing analysis (CFU spot-plating) of stationary-phase S. aureus;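 for average Δlog10(CFU/ml) (killing): drug concentration in µM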; type: cell-based, Staphylococcus aureus; details: S. aureus; for average Δlog10(CFU/ml) (killing) / Killing: average Δlog10(CFU/ml): vs 9,097 before treatment; for log10(CFU/ml) after treatment: individual replicates
Procedure, shortened: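 Survival was scored as CFU after overnight growth at 37 °C on LB agar, using spots from 10-fold PBS dilutions of treated cultures. Non-growing S. aureus DSM2569 had been exposed to compound for 24 h in 1:4 CA-MHB, pH 7.4. Three biological replicates were run.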

[3] = tested on: intracellular S. flexneri 5a M90T in TC7 cells; assay: microbe, parasite or virus in culture; type: cell-based, Shigella flexneri; details: for IC50: Shigella flexneri, TC7, 14 h
[4] = TC7 cells infected with GFP-expressing S. flexneri, 14 h treatment
[5] = E. coli in 1:4 CA-MHB (pH 7.4), concentration 0.25
[6] = E. coli in 1:4 CA-MHB (pH 7.4), concentration 0.5
[7] = E. coli in 1:4 CA-MHB (pH 7.4), concentration 1
[8] = E. coli in 1:4 CA-MHB (pH 7.4), concentration 2.5
[9] = E. coli in 1:4 CA-MHB (pH 7.4), concentration 5
[10] = E. coli in 1:4 CA-MHB (pH 7.4), concentration 10

`COc1c(N2CCNC(C)C2)c(F)cc2c(=O)c(C(=O)O)cn(C3CC3)c12` (centres unmarked) [Gatifloxacin] was tested, and the “bactericidal effect against stationary-phase UPEC cultures” value ([1]; 20 µM, preliminary experiments) was “bactericidal effects”, the “average Δlog10(CFU/ml) (killing)” value ([2]; drug conc. 0.1) was -0.121 log10(CFU/ml) and the “average Δlog10(CFU/ml) (killing)” value ([2]; drug conc. 0.5) was -0.040 log10(CFU/ml). For the same compound, the “average Δlog10(CFU/ml) (killing)” value ([2]; drug conc. 2.5) was 0.371 log10(CFU/ml), the “average Δlog10(CFU/ml) (killing)” value ([2]; drug conc. 10) was 0.946 log10(CFU/ml) and the IC50 [3] was 34 nM. The “Fluorescence intensity (RFU), Mean, 0.5 x MIC” value [3, 4] was 7621.42 RFU, the “Fluorescence intensity (RFU), Mean, 2 x MIC” value [3, 4] was 3709.33 RFU and the “Fluorescence intensity (RFU), Mean, 4 x MIC” value [3, 4] was 3006.58 RFU. The “Fluorescence intensity (RFU), Mean, 8 x MIC” value [3, 4] was 2924.83 RFU, the “Fluorescence intensity (RFU), Mean, 16 x MIC” value [3, 4] was 2191.44 RFU and the “Fluorescence intensity (RFU), Mean, 32 x MIC” value [3, 4] was 1768.58 RFU. For the same compound, the “Fluorescence intensity (RFU), Mean, MIC” value [3, 4] was 5214.92 RFU.
In the case of `CC1COc2c(N3CCN(C)CC3)c(F)cc3c(=O)c(C(=O)O)cn1c23` (centres unmarked) [Ofloxacin], the “log10(CFU/ml) after treatment” value [1, 5] is reported as 9.204 log10(CFU/ml) and 8.602 log10(CFU/ml) and 8.778 log10(CFU/ml), the “log10(CFU/ml) after treatment” value [1, 6] is reported as 9.041 log10(CFU/ml) and 8.301 log10(CFU/ml) and 8.699 log10(CFU/ml) and the “log10(CFU/ml) after treatment” value [1, 7] is reported as 9.204 log10(CFU/ml) and 8.778 log10(CFU/ml) and 8.602 log10(CFU/ml). For the same compound, the “log10(CFU/ml) after treatment” value [1, 8] was 9.204 log10(CFU/ml) and 8.845 log10(CFU/ml) and 8.699 log10(CFU/ml), the “log10(CFU/ml) after treatment” value [1, 9] was 8.477 log10(CFU/ml) (2×) and 8.301 log10(CFU/ml) and the “log10(CFU/ml) after treatment” value [1, 10] was 8.544 log10(CFU/ml) and 8.230 log10(CFU/ml) and 8.176 log10(CFU/ml). For the same compound, the “log10(CFU/ml) after treatment” value ([2]; concentration 0.1) was 9.279 log10(CFU/ml) and 9.041 log10(CFU/ml) and 9.086 log10(CFU/ml), the “log10(CFU/ml) after treatment” value ([2]; concentration 0.5) was 9.301 log10(CFU/ml) and 9.049 log10(CFU/ml) and 8.462 log10(CFU/ml) and the “log10(CFU/ml) after treatment” value ([2]; concentration 2.5) was 9.230 log10(CFU/ml) and 9.093 log10(CFU/ml) and 8.740 log10(CFU/ml). The “log10(CFU/ml) after treatment” value ([2]; concentration 10) was 9.447 log10(CFU/ml) and 8.924 log10(CFU/ml) and 8.839 log10(CFU/ml), the IC50 [3] was 113 nM and the “Fluorescence intensity (RFU), Mean, 0.25 x MIC” value [3, 4] was 9690.38 RFU. The “Fluorescence intensity (RFU), Mean, 0.5 x MIC” value [3, 4] was 8574.42 RFU, the “Fluorescence intensity (RFU), Mean, 2 x MIC” value [3, 4] was 3677.86 RFU and the “Fluorescence intensity (RFU), Mean, 4 x MIC” value [3, 4] was 3135.58 RFU. For the same compound, the “Fluorescence intensity (RFU), Mean, 8 x MIC” value [3, 4] was 2241.58 RFU, the “Fluorescence intensity (RFU), Mean, 16 x MIC” value [3, 4] was 1713.97 RFU and the “Fluorescence intensity (RFU), Mean, 32 x MIC” value [3, 4] was 1616.14 RFU. The “Fluorescence intensity (RFU), Mean, MIC” value [3, 4] was 4797.17 RFU.
For `CO[C@H]1/C=C/O[C@@]2(C)Oc3c(C)c(O)c4c(O)c(c(/C=N/N5CCN(C6CCCC6)CC5)c(O)c4c3C2=O)NC(=O)/C(C)=C\C=C\[C@H](C)[C@H](O)[C@@H](C)[C@@H](O)[C@@H](C)[C@H](OC(C)=O)[C@@H]1C` [Rifapentine], the “log10(CFU/ml) after treatment, single replicates” value (“log10(CFU/ml) … single replicates” for short) [1, 5] was 9.114 log10(CFU/ml) and 8.301 log10(CFU/ml) and 8.415 log10(CFU/ml), the “Killing: average Δlog10(CFU/ml)” value ([1]; E. coli in 1:4 CA-MHB (pH 7.4), concentration 0.25, vs 8.977 before treatment) was 0.367 log10(CFU/ml) and the “log10(CFU/ml) … single replicates” value [1, 6] was 9.301 log10(CFU/ml) and 8.778 log10(CFU/ml) and 8.380 log10(CFU/ml). For the same compound, the “Killing: average Δlog10(CFU/ml)” value ([1]; E. coli in 1:4 CA-MHB (pH 7.4), concentration 0.5, vs 8.977 before treatment) was 0.158 log10(CFU/ml), the “log10(CFU/ml) … single replicates” value [1, 7] was 9.079 log10(CFU/ml) and 8.602 log10(CFU/ml) and 8.342 log10(CFU/ml) and the “Killing: average Δlog10(CFU/ml)” value ([1]; E. coli in 1:4 CA-MHB (pH 7.4), concentration 1, vs 8.977 before treatment) was 0.303 log10(CFU/ml). For the same compound, the “log10(CFU/ml) … single replicates” value [1, 8] was 9.176 log10(CFU/ml) and 9.204 log10(CFU/ml) and 8.845 log10(CFU/ml), the “Killing: average Δlog10(CFU/ml)” value ([1]; E. coli in 1:4 CA-MHB (pH 7.4), concentration 2.5, vs 8.977 before treatment) was -0.098 log10(CFU/ml) and the “log10(CFU/ml) … single replicates” value [1, 9] was 9.204 log10(CFU/ml) and 8.699 log10(CFU/ml) (2×). The “Killing: average Δlog10(CFU/ml)” value ([1]; E. coli in 1:4 CA-MHB (pH 7.4), concentration 5, vs 8.977 before treatment) was 0.110 log10(CFU/ml), the “log10(CFU/ml) … single replicates” value [1, 10] was 9.114 log10(CFU/ml) and 8.362 log10(CFU/ml) and 8.204 log10(CFU/ml) and the “Killing: average Δlog10(CFU/ml)” value ([1]; E. coli in 1:4 CA-MHB (pH 7.4), concentration 10, vs 8.977 before treatment) was 0.417 log10(CFU/ml). The “log10(CFU/ml) … single replicates” value ([1]; E. coli in LPM (pH 5.5), concentration 0.25) was 7.000 log10(CFU/ml) and 6.519 log10(CFU/ml) and 7.613 log10(CFU/ml), the “Killing: average Δlog10(CFU/ml)” value ([1]; E. coli in LPM (pH 5.5), concentration 0.25, vs 7.350 before treatment) was 0.307 log10(CFU/ml) and the “log10(CFU/ml) … single replicates” value ([1]; E. coli in LPM (pH 5.5), concentration 0.5) was 6.954 log10(CFU/ml) and 6.699 log10(CFU/ml) and 7.531 log10(CFU/ml). For the same compound, the “Killing: average Δlog10(CFU/ml)” value ([1]; E. coli in LPM (pH 5.5), concentration 0.5, vs 7.350 before treatment) was 0.289 log10(CFU/ml), the “log10(CFU/ml) … single replicates” value ([1]; E. coli in LPM (pH 5.5), concentration 1) was 6.778 log10(CFU/ml) and 6.602 log10(CFU/ml) and 7.613 log10(CFU/ml) and the “Killing: average Δlog10(CFU/ml)” value ([1]; E. coli in LPM (pH 5.5), concentration 1, vs 7.350 before treatment) was 0.353 log10(CFU/ml). The “log10(CFU/ml) … single replicates” value ([1]; E. coli in LPM (pH 5.5), concentration 2.5) was 7.079 log10(CFU/ml) and 6.447 log10(CFU/ml) and 7.491 log10(CFU/ml), the “Killing: average Δlog10(CFU/ml)” value ([1]; E. coli in LPM (pH 5.5), concentration 2.5, vs 7.350 before treatment) was 0.344 log10(CFU/ml) and the “log10(CFU/ml) … single replicates” value ([1]; E. coli in LPM (pH 5.5), concentration 5) was 7.204 log10(CFU/ml) and 6.845 log10(CFU/ml) and 7.301 log10(CFU/ml). The “Killing: average Δlog10(CFU/ml)” value ([1]; E. coli in LPM (pH 5.5), concentration 5, vs 7.350 before treatment) was 0.234 log10(CFU/ml), the “log10(CFU/ml) … single replicates” value ([1]; E. coli in LPM (pH 5.5), concentration 10) was 6.778 log10(CFU/ml) and 7.041 log10(CFU/ml) and 7.204 log10(CFU/ml) and the “Killing: average Δlog10(CFU/ml)” value ([1]; E. coli in LPM (pH 5.5), concentration 10, vs 7.350 before treatment) was 0.342 log10(CFU/ml). For the same compound, the “log10(CFU/ml) … single replicates” value ([2]; concentration 0.1) was 8.708 log10(CFU/ml) and 8.968 log10(CFU/ml) and 8.653 log10(CFU/ml), the “Killing: average Δlog10(CFU/ml)” value ([2]; concentration 0.1) was 0.321 log10(CFU/ml) and the “log10(CFU/ml) … single replicates” value ([2]; concentration 0.5) was 8.732 log10(CFU/ml) and 8.954 log10(CFU/ml) and 8.491 log10(CFU/ml). The “Killing: average Δlog10(CFU/ml)” value ([2]; concentration 0.5) was 0.371 log10(CFU/ml), the “log10(CFU/ml) … single replicates” value ([2]; concentration 2.5) was 8.672 log10(CFU/ml) and 8.748 log10(CFU/ml) and 8.643 log10(CFU/ml) and the “Killing: average Δlog10(CFU/ml)” value ([2]; concentration 2.5) was 0.409 log10(CFU/ml). The “log10(CFU/ml) … single replicates” value ([2]; concentration 10) was 8.756 log10(CFU/ml) and 8.477 log10(CFU/ml) and 8.544 log10(CFU/ml), the “Killing: average Δlog10(CFU/ml)” value ([2]; concentration 10) was 0.505 log10(CFU/ml) and the IC50 [3] was 3090 nM. The “Fluorescence intensity (RFU), Mean, 0.0625 x MIC” value ([3]; TC7 cells infected with GFP-expressing S. flexneri, 14 h treatment, 0.0625 x MIC) was 10012.8 RFU, the “Fluorescence intensity (RFU), Mean, 0.125 x MIC” value ([3]; TC7 cells infected with GFP-expressing S. flexneri, 14 h treatment, 0.125 x MIC) was 10655.7 RFU and the “Fluorescence intensity (RFU), Mean, 0.25 x MIC” value [3, 4] was 3668.46 RFU. For the same compound, the “Fluorescence intensity (RFU), Mean, 0.5 x MIC” value [3, 4] was 1616.31 RFU, the “Fluorescence intensity (RFU), Mean, 2 x MIC” value [3, 4] was 1321.39 RFU and the “Fluorescence intensity (RFU), Mean, 4 x MIC” value [3, 4] was 1243.06 RFU. For the same compound, the “Fluorescence intensity (RFU), Mean, 8 x MIC” value [3, 4] was 1167.19 RFU, the “Fluorescence intensity (RFU), Mean, 16 x MIC” value [3, 4] was 915.083 RFU and the “Fluorescence intensity (RFU), Mean, MIC” value [3, 4] was 1458.03 RFU.
